Consider eight molecules from patent publication US20210269411A1, “COMFREYNS, ARYLNAPHTHALENE LIGNANS THAT INHIBIT PRO-INFLAMMATORY GENE EXPRESSION, AND PHARMACEUTIC COMPOSITION COMPRISING THEM” (The Procter & Gamble Company, priority 2020, published 2021).

This assay has as its system IL-1β induced E-selectin expression. In words: Inhibition of IL-1β induced E-selectin (SELE) mRNA expression in primary HUVEC, real time PCR. The conditions noted are these: for Inhibitory activity against E-selectin expression (in words): IL-1β stimulated HUVEC, 5 ng/mL IL-1β for 90 min; for EC [μM] (effective concentration) / Max. Inhibition (%): HUVEC pre-incubated 30 min with compound, then 5 ng/mL IL-1β for 90 min; for EC [μM] (effective concentration): SELE mRNA normalized to GAPDH, at least three independent experiments; for Max. Inhibition (%): SELE mRNA by qPCR, at the effective concentration. The format is cell-based, human. Here is the method: J. Seigner et al. (Frontiers in Pharmacology 10.3389/fphar.2019.00289) reported recently that interleukin-1β (IL-1β) induced E-selectin mRNA levels were inhibited by a comfrey extract by approximately 70% at the starting concentration of 20 μg/ml. E-selectin is a NF-κB-dependent target gene and IL-1β is a well-described pro-inflammatory mediator that exerts an important role in the regulation of immune and inflammatory responses, in particular those involving sterile insults such as trauma and blunt injuries. […] Thus, the anti-inflammatory activity of individual compounds 1, 5, 12 and 14, was tested using IL-1-stimulated HUVEC cells and analyzed by real time PCR determining the fold change in mRNA expression of E-selectin. These were compared to the inhibitory activity of the new arylnaphthalene lignan comfreyn A (15) and globoidnan B (8), malaxinic acid (9) and caffeic acid ethyl ester (16), the latter three identified first time in S. officinale as disclosed herein.
Therefore, primary HUVEC cells were isolated from umbilical cords as described by M. Hoeth et al., Guidance Molecules in Human Endothelial Cells, Plos One 7, 2012 and maintained in M199 medium (Lonza) supplemented with 20% FCS (Sigma), 2 mM L-glutamine (Sigma), penicillin (100 units/mL), streptomycin ([…]), 5 units/mL heparin, and […] ECGS (Promocell), and were used up to passage 5. HUVEC cell were pre-incubated with various concentration of purified compounds (1, 5, 8, 9, 12, 14, 15 and 16) for 30 minutes following stimulation with 5 ng/mL IL-1β (R&D Systems) for 90 min. Cells were then analyzed for the change in mRNA expression of E-Selectin (SELE). Therefore, total RNA was isolated using the PeqGold Total RNA Isolation Kit (VWR International) according to the manufacturer's instructions. 1 μg RNA was reverse transcribed using random hexamers (Fermentas) and murine leukemia virus reverse transcriptase (Thermo Scientific Fisher). Primers were designed using the software “Primer3”. Following primer sequences were used for qPCR: glyceraldehyde 3-phosphate dehydrogenase (GAPDH) forward, 5′-AGAAGGCTGGGGCTCATTT-3′ and reverse, 5′-[…]-3′; E-Selectin (SELE) forward, 5′-CCTGTGAAGCTCCCACTGA-3 and reverse 5′-[…]-3′. Real-time PCR was done with the SsoAdvanced Universal SYBR Green Supermix (BioRad) using the StepOnePlus instrument (Applied Biosystems), and relative mRNA expression normalized to GAPDH. Fold changes in mRNA expression were calculated according to the 2-ΔΔCT method.
A general note: Real-time PCR tracks product formation cycle by cycle.

Values joined by “and” are separate entries in the source; they are usually repeats but may differ in a detail not shown here. Equal values may be shown once.

Regarding `NC(=O)NC1NC(=O)NC1=O` (stereo not shown) [Compound 1, allantoin], the “Inhibitory activity against E-selectin expression (in words)” value is recorded as “do not show any inhibitor activity”.
For `O=Cc1ccc(O)c(O)c1` [Compound 5, protocatechuic aldehyde], the “EC [μM] (effective concentration)” value was 120 µM.
Consider `O=C(O[C@H](Cc1ccc(O)c(O)c1)C(=O)O)C1=Cc2cc(O)c(O)cc2[C@H](c2ccc(O)c(O)c2)[C@H]1C(=O)O` [Compound 8, globoidnan B], for which the “Inhibitory activity against E-selectin expression (in words)” value is “did not show any inhibitory activity”.
Take `CC(C)=CCc1cc(C(=O)O)ccc1O[C@@H]1O[C@H](CO)[C@@H](O)C(O)[C@H]1O` (stereo partly shown) [Compound 9, malaxinic acid]: the “EC [μM] (effective concentration)” value is 108 µM.
For `O=C(/C=C/c1ccc(O)c(O)c1)O[C@H](Cc1ccc(O)c(O)c1)C(=O)O` [Compound 12, rosmarinic acid], the “Inhibitory activity against E-selectin expression (in words)” value was “do not show any inhibitor activity”.
`O=C(O[C@H](Cc1ccc(O)c(O)c1)C(=O)O)c1cc(-c2ccc(O)c(O)c2)c2cc(O)c(O)cc2c1` [Compound 14, globoidnan A]: the “Max. Inhibition (%)” value is reported as 35% and the “EC [μM] (effective concentration)” value is 40 µM.
For `CCOC(=O)c1cc2cc(O)c(O)cc2c2c1c(=O)oc1cc(O)c(O)cc12` [Compound 15, comfreyn A], the “Max. Inhibition (%)” value was 50% and 52%; the “EC [μM] (effective concentration)” value stood at 50 µM. Besides, the “Inhibitory activity against E-selectin expression (in words)” value (listed as Comfreyn A) was “inhibition of E-selectin expression”. For the same molecule, the “Inhibitory activity against E-selectin expression (in words)” value (listed as comfreyn A) was “inhibit the expression of E-selecting mRNA”.
Regarding `CCOC(=O)/C=C/c1ccc(O)c(O)c1` [Compound 16, caffeic acid ethyl ester], the “Max. Inhibition (%)” value worked out at 70% and the “EC [μM] (effective concentration)” value was 64 µM.
